Consider 11 compounds from ChEMBL document CHEMBL1201862, “PubChem BioAssay data set” (2004).

Some test systems named below: SN12C; COLO 205; BT-549; NCI/ADR-RES; HCT-15; HOP-92; MOLT-4; TK-10; OVCAR-5; SK-MEL-5; RPMI-8226; NCI-H460; OVCAR-8; MDA-MB-231; Malme-3M; SNB-19; RXF 393; M14; HL-60; CCRF-CEM.
What all share (test): DTP human tumour cell line panel, 48 h

SMILES strings stand for the structures.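 In this assay, cells in 96-well plates receive the compound at five concentrations for 48 hours. Endpoints are linearly interpolated between the surrounding concentrations. GI50 = concentration required for 50% inhibition of growth.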 Calls of active or inactive are those of the source. Rule as the data show it: active = GI50 up to about 1.1 µM and inactive = higher. A value given as a limit tells only on which side of the number the result lay.

As a reminder, the GI50 is the concentration that inhibits growth by half.

Take `O=C(CCN1CCCCC1)c1csc2ccccc12`: the GI50 in the experiment with SN12C was > 100 µM (inactive); in the experiment on COLO 205 it was > 100 µM (inactive); in the experiment on BT-549 it was > 100 µM (inactive); in the experiment with NCI/ADR-RES it was > 100 µM (inactive); in the experiment on HCT-15, greater than 100 µM; in the experiment with HOP-92 it was > 100 µM (inactive). Further, the GI50 in the experiment with MOLT-4 was 61.2 µM (inactive); with TK-10, 94.6 µM (inactive); in the experiment with OVCAR-5 it was > 100 µM (inactive); with SK-MEL-5 it was > 100 µM (inactive); in the experiment on RPMI-8226 it was 10.1 µM (inactive); in the experiment on NCI-H460, > 100 µM (inactive). Moreover, the GI50 in the experiment on OVCAR-8, with MDA-MB-231, in the experiment with Malme-3M, in the experiment with SNB-19, with RXF 393 and in the experiment on M14 was > 100 µM (inactive) in each case.

Take `CCOC(=O)C(NC(=O)c1ccccc1)(N1CCOCC1)C(F)(F)F` (stereo unspecified): the GI50 with HL-60 is > 100 µM (inactive); in the experiment with SN12C it was > 100 µM (inactive); in the experiment on COLO 205, > 100 µM (inactive); in the experiment with BT-549, > 100 µM (inactive); with NCI/ADR-RES, > 100 µM (inactive); in the experiment on HCT-15, greater than 100 µM. Also, the GI50 in the experiment on HOP-92, with MOLT-4, with TK-10, with OVCAR-5, with SK-MEL-5 and in the experiment on RPMI-8226 was > 100 µM (inactive) throughout. Further, the GI50 in the experiment with CCRF-CEM, in the experiment with OVCAR-8, with MDA-MB-231, in the experiment on Malme-3M, in the experiment with SNB-19 and in the experiment with RXF 393 was > 100 µM (inactive) each time. The GI50 with M14 is > 100 µM (inactive).

As to `COC(=O)C[C@@H]1C(C)(C)[C@@H]2O[C@@]34C[C@@H]2C(=O)[C@]1(C)[C@H]3CC[C@@]1(C)[C@H](c2ccoc2)OC(=O)C[C@]14O`, the GI50 is > 100 µM (inactive) in the experiment on HL-60; > 100 µM (inactive) in the experiment on SN12C; > 100 µM (inactive) in the experiment with COLO 205; > 100 µM (inactive) with BT-549; > 100 µM (inactive) in the experiment on NCI/ADR-RES; greater than 100 µM with HCT-15. Also, the GI50 in the experiment with HOP-92, with MOLT-4, in the experiment on TK-10, with OVCAR-5, in the experiment with SK-MEL-5 and in the experiment with RPMI-8226 was > 100 µM (inactive) throughout. In addition, the GI50 with CCRF-CEM is > 100 µM (inactive); with NCI-H460 it was > 100 µM (inactive); in the experiment with OVCAR-8 it was > 100 µM (inactive); in the experiment on MDA-MB-231 it was > 100 µM (inactive); with Malme-3M it was > 100 µM (inactive); in the experiment with SNB-19, 71.6 µM (inactive). The GI50 in the experiment with M14 is > 100 µM (inactive).

As to `CC(C)(C)OC(=O)N(O)CCCn1cnc2c(N)ncnc21`, the GI50 in the experiment on SN12C was > 100 µM (inactive); with COLO 205, > 100 µM (inactive); in the experiment on BT-549 it was > 100 µM (inactive); in the experiment with NCI/ADR-RES, > 100 µM (inactive); in the experiment with HCT-15, greater than 100 µM; in the experiment on HOP-92, > 100 µM (inactive). Besides, the GI50 in the experiment on MOLT-4, in the experiment on TK-10, in the experiment with OVCAR-5, in the experiment on SK-MEL-5, in the experiment on RPMI-8226 and with CCRF-CEM was > 100 µM (inactive) throughout. The GI50 in the experiment with NCI-H460, in the experiment on OVCAR-8, in the experiment with MDA-MB-231, with Malme-3M, with SNB-19 and in the experiment on RXF 393 was > 100 µM (inactive) throughout. Besides, in the experiment with M14, the GI50 was > 100 µM (inactive).

For `COC(=O)C1(SC)C2CCC3C2CCC31` (stereo unspecified), the GI50 in the experiment with HL-60 is > 100 µM (inactive); in the experiment with SN12C it was > 100 µM (inactive); with COLO 205 it was > 100 µM (inactive); in the experiment on BT-549, > 100 µM (inactive); in the experiment on NCI/ADR-RES, > 100 µM (inactive); in the experiment with HCT-15 it was greater than 100 µM. For the same compound, the GI50 in the experiment on HOP-92, in the experiment on MOLT-4, in the experiment on OVCAR-5, in the experiment on SK-MEL-5, in the experiment with RPMI-8226 and in the experiment on CCRF-CEM was > 100 µM (inactive) each time. In addition, the GI50 in the experiment with NCI-H460, with OVCAR-8, in the experiment with MDA-MB-231, with Malme-3M, in the experiment on SNB-19 and in the experiment with RXF 393 was > 100 µM (inactive) in each case. In addition, the GI50 in the experiment with M14 was > 100 µM (inactive).

With `CC(=O)/N=C1\NC(=O)/C(=C/c2ccccc2Cl)N1C`, the GI50 with HL-60 is > 100 µM (inactive); with SN12C, > 100 µM (inactive); in the experiment on COLO 205 it was > 100 µM (inactive); in the experiment with BT-549 it was > 100 µM (inactive); in the experiment on NCI/ADR-RES it was 43.2 µM (inactive); with HCT-15, 65.9 µM. The GI50 with HOP-92, in the experiment with MOLT-4, in the experiment with TK-10, with OVCAR-5, with SK-MEL-5 and in the experiment on CCRF-CEM was > 100 µM (inactive) each time. Besides, the GI50 in the experiment with NCI-H460, with OVCAR-8, in the experiment on MDA-MB-231, in the experiment with SNB-19, with RXF 393 and with M14 was > 100 µM (inactive) throughout.

As for `O=C(NCCn1ccnn1)Nc1ccccc1`, the GI50 in the experiment with HL-60 is > 100 µM (inactive); in the experiment on SN12C it was > 100 µM (inactive); with COLO 205, > 100 µM (inactive); in the experiment on BT-549, > 100 µM (inactive); with NCI/ADR-RES it was > 100 µM (inactive); with HCT-15, greater than 100 µM. For the same compound, the GI50 in the experiment on HOP-92, in the experiment on MOLT-4, in the experiment with TK-10, with OVCAR-5, in the experiment on SK-MEL-5 and with RPMI-8226 was > 100 µM (inactive) in each case. Further, the GI50 in the experiment on CCRF-CEM, in the experiment with NCI-H460, in the experiment on OVCAR-8, in the experiment on MDA-MB-231, in the experiment on Malme-3M and with SNB-19 was > 100 µM (inactive) in each case. Moreover, the GI50 in the experiment on M14 is > 100 µM (inactive).

As to `OCCc1ccsc1-c1sc(-c2cc(CCO)c(-c3sccc3CCO)s2)cc1CCO`, the GI50 in the experiment on SN12C was 21.3 µM (inactive); with COLO 205, 11.6 µM (inactive); in the experiment on BT-549 it was 6.11 µM (inactive); with NCI/ADR-RES, 20.2 µM (inactive); with HCT-15, 12.4 µM; with HOP-92, 11.6 µM (inactive). In addition, the GI50 was 7.89 µM (inactive) in the experiment on MOLT-4; 19.5 µM (inactive) in the experiment on TK-10; 17.1 µM (inactive) in the experiment with OVCAR-5; 15.6 µM (inactive) in the experiment on SK-MEL-5; 5.05 µM (inactive) in the experiment with RPMI-8226; 16.4 µM (inactive) in the experiment on CCRF-CEM. Further, the GI50 is 6.12 µM (inactive) with NCI-H460; 15.7 µM (inactive) in the experiment on OVCAR-8; 12.2 µM (inactive) in the experiment with MDA-MB-231; 11.1 µM (inactive) in the experiment on Malme-3M; 13.6 µM (inactive) with SNB-19; 2.77 µM (inactive) with RXF 393. For the same compound, the GI50 with M14 is 11.3 µM (inactive).

`COc1cc(Cc2cnc(N)nc2N)cc(OC)c1OCCCNc1ccc([N+](=O)[O-])cc1`: the GI50 is 16.3 µM (inactive) with SN12C; 12.2 µM (inactive) in the experiment on COLO 205; 10.5 µM (inactive) in the experiment with BT-549; 18.6 µM (inactive) in the experiment with NCI/ADR-RES; 14.6 µM in the experiment on HCT-15; 14.3 µM (inactive) in the experiment on HOP-92. Besides, the GI50 in the experiment with MOLT-4 is 2.72 µM (inactive); with TK-10, 14.3 µM (inactive); in the experiment with OVCAR-5 it was 19 µM (inactive); in the experiment on SK-MEL-5 it was 5.79 µM (inactive); with CCRF-CEM, 9.35 µM (inactive); in the experiment with NCI-H460, 7.48 µM (inactive). Also, the GI50 was 14.3 µM (inactive) in the experiment on OVCAR-8; 12.9 µM (inactive) with MDA-MB-231; 12.7 µM (inactive) with Malme-3M; 12.8 µM (inactive) in the experiment on SNB-19; 10.4 µM (inactive) with RXF 393; 6.35 µM (inactive) with M14.

In the case of `CC(=O)C1=CN=C2C(=O)N(c3ccccc3)N(C)C12C` (stereo unspecified), the GI50 in the experiment with HL-60 was > 100 µM (inactive); with SN12C, > 100 µM (inactive); in the experiment with COLO 205, > 100 µM (inactive); with BT-549 it was > 100 µM (inactive); in the experiment on NCI/ADR-RES, 55.1 µM (inactive); in the experiment with HCT-15, 69.7 µM. Also, the GI50 is > 100 µM (inactive) with HOP-92; > 100 µM (inactive) in the experiment with MOLT-4; 49.9 µM (inactive) in the experiment on TK-10; > 100 µM (inactive) in the experiment with OVCAR-5; > 100 µM (inactive) in the experiment on SK-MEL-5; > 100 µM (inactive) in the experiment with RPMI-8226. The GI50 with CCRF-CEM, in the experiment with OVCAR-8, with MDA-MB-231, with Malme-3M, in the experiment with SNB-19 and in the experiment on RXF 393 was > 100 µM (inactive) throughout. Also, the GI50 in the experiment with M14 is > 100 µM (inactive).

In the case of `O=S(=O)(O)c1ccc2c(/N=N\c3ccc(F)cc3)c(O)c(S(=O)(=O)O)cc2c1`, the 50% growth inhibitory concentration (GI50) in the experiment with HL-60 was < 0.01 µM (active); in the experiment with SN12C, > 100 µM (inactive); with COLO 205, > 100 µM (inactive); in the experiment on BT-549, > 100 µM (inactive); in the experiment with NCI/ADR-RES it was > 100 µM (inactive); in the experiment on HCT-15, greater than 100 µM. Also, the GI50 in the experiment on HOP-92, in the experiment on MOLT-4, with TK-10, in the experiment on OVCAR-5, in the experiment with SK-MEL-5 and in the experiment with RPMI-8226 was > 100 µM (inactive) in each case. The GI50 with CCRF-CEM, in the experiment with OVCAR-8, in the experiment on MDA-MB-231, in the experiment on Malme-3M, in the experiment on SNB-19 and in the experiment with RXF 393 was > 100 µM (inactive) throughout. In addition, the GI50 with M14 is > 100 µM (inactive).
